In ChEMBL document CHEMBL6153089, “Design, Synthesis, and Biological Evaluation of Thieno[3,2-d]pyrimidine Derivatives as the First Bifunctional PI3Kδ Isoform Selective/Bromodomain and Extra-Terminal Inhibitors” (J Med Chem, 2025):
Activity calls are given as the source filed them. No cut-off for these calls is given here.

Legend:
SU-DHL-6 [1] = assay: Induction of apoptosis in human SU-DHL-6 cells assessed as viable cells at 0.25 uM incubated for 24 hrs by Annexin V-FITC/PI staining based flow cytometric analysis (reference value: 61.2 %); assay type: functional; conditions: read-out: Activity
SU-DHL-6 [2] = assay: Induction of apoptosis in human SU-DHL-6 cells assessed as decrease in Bcl-2 protein expression at 0.25 to 1 uM incubated for 12 hrs by Western blot analysis; assay type: functional, cell-based; conditions: dose 0.25-1 µM
SU-DHL-6 [3] = assay: Induction of apoptosis in human SU-DHL-6 cells assessed as viable cells at 1 uM incubated for 24 hrs by Annexin V-FITC/PI staining based flow cytometric analysis (reference value: 61.2 %); assay type: functional; conditions: read-out: Activity
[4] = molecular target: Glycogen synthase kinase-3 beta (Homo sapiens) (UniProt P49841); assay: Inhibition of GSK-3beta phosphorylation in human SU-DHL-4 cells at 0.25 to 1 uM incubated for 12 hrs by Western blot analysis; assay type: cell-based; conditions: dose 0.25-1 µM
Glycogen synthase kinase-3 beta (Homo sapiens), sequence (P49841 whole entry, looked up): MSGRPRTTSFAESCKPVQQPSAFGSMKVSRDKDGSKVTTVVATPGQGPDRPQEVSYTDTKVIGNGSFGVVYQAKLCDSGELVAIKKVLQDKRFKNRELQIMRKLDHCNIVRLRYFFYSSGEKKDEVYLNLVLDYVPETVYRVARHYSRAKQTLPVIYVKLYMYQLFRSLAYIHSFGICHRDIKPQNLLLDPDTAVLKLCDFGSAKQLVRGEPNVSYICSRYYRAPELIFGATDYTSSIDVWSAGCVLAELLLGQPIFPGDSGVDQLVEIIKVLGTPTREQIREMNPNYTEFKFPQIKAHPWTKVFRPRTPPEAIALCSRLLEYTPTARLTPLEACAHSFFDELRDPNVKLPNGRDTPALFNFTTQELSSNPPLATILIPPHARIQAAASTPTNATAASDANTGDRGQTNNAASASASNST

[5] = molecular target: T1, Bromodomain-containing protein 4 (Homo sapiens, UniProt O60885); assay: Inhibition of His-tagged BRD4-BD1 (unknown origin) at 10 nM incubated for 30 mins by Alphascreen assay relative to control
SU-DHL-6 [6] = assay: Induction of apoptosis in human SU-DHL-6 cells assessed as early apoptotic cells at 0.25 uM incubated for 24 hrs by Annexin V-FITC/PI staining based flow cytometric analysis (reference value: 32.1 %); assay type: functional
SUD4 [7] = assay: Induction of apoptosis in human SU-DHL-4 cells assessed as necrotic cells at 0.25 uM incubated for 24 hrs by Annexin V-FITC/PI staining based flow cytometric analysis (reference value: 0.642 %); assay type: functional
[8] = Toxicity in female BALB/c mouse model xenografted with human SU-DHL-6 cells assessed as effect on body weight at 20 mg/kg, po administered once daily via gavage for 15 days; assay type: organism-based; conditions: in vivo, 360 h, time 15 day
SU-DHL-6 [9] = assay: Antiproliferative against activity human SU-DHL-6 cells assessed as inhibition of cell growth incubated for 72 hrs by Celltiter-luminescence analysis; assay type: functional, cell-based; conditions: SU-DHL-6, 72 h
[10] = molecular target: Bromodomain testis-specific protein (Homo sapiens, UniProt Q58F21); assay: Inhibition of His-tagged BRDT-BD1 (unknown origin) incubated for 30 mins in presence of ATP by Alphascreen assay
SUD4 [11] = assay: Induction of apoptosis in human SU-DHL-4 cells assessed as early apoptotic cells at 0.25 uM incubated for 24 hrs by Annexin V-FITC/PI staining based flow cytometric analysis (reference value: 25.3 %); assay type: functional
WI-38 = assay: Cytotoxicity against human WI-38 cells assessed as effect on cell proliferation at 5 to 20 uM incubated for 72 hrs by Celltiter-luminescence analysis; assay type: toxicity, cell-based; conditions: wi-38, 72 h, dose 5-20 µM
[12] = molecular target: PI3-kinase p110-delta/p85-alpha (Homo sapiens, UniProt O00329); assay: Inhibition of p110delta/p85alpha (unknown origin) incubated for 2 hrs in presence of ATP by ADP-kinaseGlo reagent based assay; assay type: protein-complex assay
PI3-kinase p110-delta/p85-alpha, sequence (P27986 whole entry): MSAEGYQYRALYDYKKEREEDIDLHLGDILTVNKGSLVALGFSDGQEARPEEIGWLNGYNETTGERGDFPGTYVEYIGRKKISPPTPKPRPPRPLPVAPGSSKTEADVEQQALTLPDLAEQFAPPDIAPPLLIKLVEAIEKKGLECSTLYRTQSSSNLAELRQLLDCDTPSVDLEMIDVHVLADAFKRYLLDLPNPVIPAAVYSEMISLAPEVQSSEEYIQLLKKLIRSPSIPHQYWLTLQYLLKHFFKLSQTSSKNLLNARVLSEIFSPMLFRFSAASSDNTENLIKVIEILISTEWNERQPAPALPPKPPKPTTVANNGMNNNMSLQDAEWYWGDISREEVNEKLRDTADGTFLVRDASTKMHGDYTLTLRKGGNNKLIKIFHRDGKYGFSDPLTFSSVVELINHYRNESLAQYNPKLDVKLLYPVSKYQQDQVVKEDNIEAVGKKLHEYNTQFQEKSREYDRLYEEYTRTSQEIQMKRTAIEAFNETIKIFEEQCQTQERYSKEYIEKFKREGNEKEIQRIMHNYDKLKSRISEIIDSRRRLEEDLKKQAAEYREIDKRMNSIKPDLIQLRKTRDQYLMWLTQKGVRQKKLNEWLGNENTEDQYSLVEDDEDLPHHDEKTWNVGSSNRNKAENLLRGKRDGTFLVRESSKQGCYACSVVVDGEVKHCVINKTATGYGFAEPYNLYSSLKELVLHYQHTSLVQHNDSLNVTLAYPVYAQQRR
PI3-kinase p110-delta/p85-alpha, sequence (O00329 whole entry): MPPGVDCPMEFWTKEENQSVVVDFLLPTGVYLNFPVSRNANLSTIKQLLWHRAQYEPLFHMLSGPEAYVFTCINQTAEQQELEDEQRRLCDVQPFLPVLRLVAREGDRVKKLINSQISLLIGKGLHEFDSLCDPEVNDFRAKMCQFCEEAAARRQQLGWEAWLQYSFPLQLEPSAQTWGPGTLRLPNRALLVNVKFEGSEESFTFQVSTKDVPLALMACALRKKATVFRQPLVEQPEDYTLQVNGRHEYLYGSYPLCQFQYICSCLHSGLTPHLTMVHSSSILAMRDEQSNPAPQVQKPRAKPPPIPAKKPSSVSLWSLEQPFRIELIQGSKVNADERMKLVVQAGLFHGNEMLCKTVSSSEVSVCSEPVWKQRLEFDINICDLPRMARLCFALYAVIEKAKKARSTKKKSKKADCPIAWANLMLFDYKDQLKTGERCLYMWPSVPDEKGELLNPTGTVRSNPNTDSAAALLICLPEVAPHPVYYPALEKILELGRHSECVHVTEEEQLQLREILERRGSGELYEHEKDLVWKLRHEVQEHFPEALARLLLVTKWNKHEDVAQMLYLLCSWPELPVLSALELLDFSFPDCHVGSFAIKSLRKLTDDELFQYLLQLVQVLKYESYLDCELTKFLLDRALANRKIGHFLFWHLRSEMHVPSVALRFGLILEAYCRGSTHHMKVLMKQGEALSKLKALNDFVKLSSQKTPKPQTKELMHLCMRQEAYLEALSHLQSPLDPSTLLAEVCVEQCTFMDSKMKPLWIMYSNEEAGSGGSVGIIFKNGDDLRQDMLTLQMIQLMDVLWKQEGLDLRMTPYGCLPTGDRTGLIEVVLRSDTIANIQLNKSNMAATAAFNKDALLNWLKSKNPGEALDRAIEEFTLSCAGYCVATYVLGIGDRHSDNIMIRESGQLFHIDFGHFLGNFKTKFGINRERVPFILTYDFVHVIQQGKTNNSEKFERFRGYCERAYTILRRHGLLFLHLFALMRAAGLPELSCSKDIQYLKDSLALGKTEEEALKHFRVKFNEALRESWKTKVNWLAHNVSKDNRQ

SUD4 [13] = assay: Downregulation of c-Myc expression in human SU-DHL-4 cells at 0.25 to 1 uM incubated for 12 hrs by Western blot analysis; assay type: functional, cell-based; conditions: dose 0.25-1 µM
[14] = molecular target: T1, Bromodomain-containing protein 4; assay: Inhibition of His-tagged BRD4-BD1 (unknown origin) incubated for 30 mins in presence of ATP by Alphascreen assay
[15] = AUC (0 to t) in female BALB/c mouse at 1 mg/kg, iv measured after 12 hrs by LC-MS/MS analysis; assay type: ADME, organism-based; conditions: in vivo
[16] = Toxicity in female BALB/c mouse model xenografted with human SU-DHL-6 cells assessed as effect on spleen histopathology at 20 mg/kg, po administered once daily via gavage for 15 days by H and E staining based analysis; assay type: organism-based; conditions: in vivo, 360 h, time 15 day
HUVEC = assay: Cytotoxicity against HUVEC cells assessed as effect on cell proliferation at 5 to 20 uM incubated for 72 hrs by Celltiter-luminescence analysis; assay type: toxicity, cell-based; conditions: human, dose 5-20 µM
[17] = molecular target: Phosphatidylinositol 4,5-bisphosphate 3-kinase catalytic subunit gamma isoform (Homo sapiens, UniProt P48736); assay: Inhibition of PI3Kgamma (unknown origin) incubated for 2 hrs in presence of ATP by ADP-kinaseGlo reagent based assay
Phosphatidylinositol 4,5-bisphosphate 3-kinase catalytic subunit gamma isoform, sequence (P48736 whole entry, canonical isoform): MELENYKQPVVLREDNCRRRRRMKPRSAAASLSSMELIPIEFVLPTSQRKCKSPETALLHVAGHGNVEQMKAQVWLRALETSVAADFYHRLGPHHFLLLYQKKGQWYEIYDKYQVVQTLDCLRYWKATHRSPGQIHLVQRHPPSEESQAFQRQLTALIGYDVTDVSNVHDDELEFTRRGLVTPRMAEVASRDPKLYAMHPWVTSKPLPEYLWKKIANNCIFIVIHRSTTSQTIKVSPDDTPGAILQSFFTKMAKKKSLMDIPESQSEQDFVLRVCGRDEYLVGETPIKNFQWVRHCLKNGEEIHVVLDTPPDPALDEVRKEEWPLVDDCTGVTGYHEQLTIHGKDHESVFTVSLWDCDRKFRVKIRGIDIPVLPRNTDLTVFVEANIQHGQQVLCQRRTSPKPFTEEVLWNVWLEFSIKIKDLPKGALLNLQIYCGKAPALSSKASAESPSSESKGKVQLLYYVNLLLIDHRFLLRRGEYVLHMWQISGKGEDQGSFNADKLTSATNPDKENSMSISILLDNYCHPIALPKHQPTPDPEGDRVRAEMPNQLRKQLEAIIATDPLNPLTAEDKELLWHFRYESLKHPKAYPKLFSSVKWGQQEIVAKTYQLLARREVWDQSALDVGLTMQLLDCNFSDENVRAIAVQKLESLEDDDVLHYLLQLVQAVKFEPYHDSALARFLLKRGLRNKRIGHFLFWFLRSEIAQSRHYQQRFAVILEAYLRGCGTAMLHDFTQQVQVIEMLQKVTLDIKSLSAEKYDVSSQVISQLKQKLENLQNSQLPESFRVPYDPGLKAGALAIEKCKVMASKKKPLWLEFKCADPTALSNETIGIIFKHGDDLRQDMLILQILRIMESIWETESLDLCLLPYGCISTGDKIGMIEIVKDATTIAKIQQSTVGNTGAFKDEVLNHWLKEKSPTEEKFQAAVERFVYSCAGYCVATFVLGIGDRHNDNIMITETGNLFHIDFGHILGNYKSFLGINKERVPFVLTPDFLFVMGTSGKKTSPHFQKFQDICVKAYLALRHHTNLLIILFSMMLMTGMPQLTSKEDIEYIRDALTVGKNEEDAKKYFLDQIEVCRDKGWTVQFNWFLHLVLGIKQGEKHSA

SU-DHL-6 [18] = assay: Induction of apoptosis in human SU-DHL-6 cells assessed as late apoptotic cells at 0.25 uM incubated for 24 hrs by Annexin V-FITC/PI staining based flow cytometric analysis (reference value: 6.43 %); assay type: functional
SU-DHL-6 [19] = assay: Induction of apoptosis in human SU-DHL-6 cells assessed as early apoptotic cells at 0.5 uM incubated for 24 hrs by Annexin V-FITC/PI staining based flow cytometric analysis (reference value: 32.1 %); assay type: functional
SU-DHL-6 [20] = assay: Induction of apoptosis in human SU-DHL-6 cells assessed as necrotic cells at 0.5 uM incubated for 24 hrs by Annexin V-FITC/PI staining based flow cytometric analysis (reference value: 0.246 %); assay type: functional
Homo sapiens [21] = organism: Homo sapiens; assay: Inhibition of human p110alpha-H1047R mutant/p85alpha at 1 uM relative to control
[22] = Toxicity in female BALB/c mouse model xenografted with human SU-DHL-6 cells assessed as effect on liver histopathology at 20 mg/kg, po administered once daily via gavage for 15 days by H and E staining based analysis; assay type: organism-based; conditions: in vivo, 360 h, time 15 day
SUD4 [23] = assay: Induction of apoptosis in human SU-DHL-4 cells assessed as late apoptotic cells at 1 uM incubated for 24 hrs by Annexin V-FITC/PI staining based flow cytometric analysis (reference value: 6.74 %); assay type: functional
Homo sapiens [24] = organism: Homo sapiens; assay: Inhibition of human p110alpha/p65alpha at 1 uM relative to control
[25] = Clearance in female BALB/c mouse at 1 mg/kg, iv measured after 12 hrs by LC-MS/MS analysis; assay type: ADME, organism-based; conditions: in vivo
SU-DHL-6 [26] = assay: Induction of apoptosis in human SU-DHL-6 cells assessed as early apoptotic cells at 1 uM incubated for 24 hrs by Annexin V-FITC/PI staining based flow cytometric analysis (reference value: 32.1 %); assay type: functional
[27] = molecular target: PI3-kinase p110-alpha/p85-alpha (Homo sapiens) (UniProt P27986+P42336); assay: Inhibition of human p110alpha/p85alpha at 1 uM relative to control; assay type: protein-complex assay
SUD4 [28] = assay: Antiproliferative against activity human SU-DHL-4 cells assessed as inhibition of cell growth incubated for 72 hrs by Celltiter-luminescence analysis; assay type: functional, cell-based; conditions: SU-DHL-4, 72 h
SUD4 [29] = assay: Induction of apoptosis in human SU-DHL-4 cells assessed as decrease in Bcl-2 protein expression at 0.25 to 1 uM incubated for 12 hrs by Western blot analysis; assay type: functional, cell-based; conditions: dose 0.25-1 µM
SU-DHL-6 [30] = assay: Antitumor activity against human SU-DHL-6 cells xenografted in female BALB/c mouse model assessed as reduction in c-Myc level in tumor at 20 mg/kg, po administered once daily via gavage for 15 days by Western blot analysis; assay type: functional, organism-based; conditions: time 15.0 day
SU-DHL-4 = assay: Inhibition of AKT phosphorylation in human SU-DHL-4 cells at 0.25 to 1 uM incubated for 12 hrs by Western blot analysis; assay type: cell-based; conditions: dose 0.25-1 µM
[31] = molecular target: PI3-kinase p110-alpha/p85-alpha (Homo sapiens, UniProt P42336); assay: Inhibition of p110alpha/p85alpha (unknown origin) incubated for 2 hrs in presence of ATP by ADP-kinaseGlo reagent based assay; assay type: protein-complex assay
PI3-kinase p110-alpha/p85-alpha, sequence (P27986 whole entry): as the sequence (P27986 whole entry) above
PI3-kinase p110-alpha/p85-alpha, sequence (P42336 whole entry): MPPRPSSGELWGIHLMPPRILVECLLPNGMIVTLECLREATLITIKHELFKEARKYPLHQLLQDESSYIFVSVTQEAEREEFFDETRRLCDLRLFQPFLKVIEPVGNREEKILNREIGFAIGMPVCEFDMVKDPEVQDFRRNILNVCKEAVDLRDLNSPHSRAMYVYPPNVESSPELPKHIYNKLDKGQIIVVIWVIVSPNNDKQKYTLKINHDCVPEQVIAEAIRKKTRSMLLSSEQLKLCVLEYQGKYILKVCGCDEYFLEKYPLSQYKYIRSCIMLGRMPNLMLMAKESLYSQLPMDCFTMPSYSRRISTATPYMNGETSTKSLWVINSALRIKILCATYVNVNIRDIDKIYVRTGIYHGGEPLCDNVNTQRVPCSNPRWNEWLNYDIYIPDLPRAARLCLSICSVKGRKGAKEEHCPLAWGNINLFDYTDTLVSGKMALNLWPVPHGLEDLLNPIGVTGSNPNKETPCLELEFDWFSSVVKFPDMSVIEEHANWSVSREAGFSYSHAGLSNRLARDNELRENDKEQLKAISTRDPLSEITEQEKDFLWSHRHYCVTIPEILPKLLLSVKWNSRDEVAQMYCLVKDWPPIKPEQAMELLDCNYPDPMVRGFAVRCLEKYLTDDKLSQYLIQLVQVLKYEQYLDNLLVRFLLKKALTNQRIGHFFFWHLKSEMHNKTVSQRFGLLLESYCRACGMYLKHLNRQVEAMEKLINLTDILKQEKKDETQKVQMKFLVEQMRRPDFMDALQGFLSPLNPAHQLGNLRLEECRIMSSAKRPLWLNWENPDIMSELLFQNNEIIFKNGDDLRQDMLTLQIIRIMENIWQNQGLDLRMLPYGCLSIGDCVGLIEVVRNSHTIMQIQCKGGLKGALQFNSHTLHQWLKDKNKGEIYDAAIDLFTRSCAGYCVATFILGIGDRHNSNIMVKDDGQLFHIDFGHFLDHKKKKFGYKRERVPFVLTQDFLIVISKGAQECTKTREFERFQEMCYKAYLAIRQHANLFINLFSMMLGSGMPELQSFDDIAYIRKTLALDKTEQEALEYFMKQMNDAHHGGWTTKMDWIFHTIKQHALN

inhibition [4]: Active | inhibition [5]: 33.7% | IC50 (SU-DHL-6 [9]): 61 nM | IC50 [10]: 46 nM | IC50 [12]: 112 nM | IC50 [14]: 19 nM | AUC(0-t) at 12 h [15]: 145 ng·h/mL | IC50 [17]: 915 nM | inhibition (Homo sapiens [21]): 33.7% | inhibition (Homo sapiens [24]): 41.9% | clearance [25]: 112 mL/min/kg | inhibition [27]: 41% | IC50 [31]: 6130 nM
Compound: Cn1cc(-c2nc(N3CCOCC3)c3sc(CN4CCC(C(C)(C)O)CC4)cc3n2)c2cc[nH]c2c1=O
viability at 0.25 µM (SU-DHL-6 [1]): 53.7% | Activity (SU-DHL-6 [2]): Active; Modest Effect Observed | viability at 1 µM (SU-DHL-6 [3]): 41.8% | Activity (SU-DHL-6 [6]): 39.5% | Activity (SUD4 [7]): 1.34% | Activity [8]: Non-toxic | Activity (SUD4 [11]): 32.4% | Activity (WI-38): Non-toxic | Activity (SUD4 [13]): Active | Activity [16]: Non-toxic | Activity (HUVEC): Non-toxic | Activity (SU-DHL-6 [18]): 6.32% | Activity (SU-DHL-6 [19]): 41.8% | Activity (SU-DHL-6 [20]): 0.67% | Activity [22]: Non-toxic | Activity (SUD4 [23]): 26.2% | Activity (SU-DHL-6 [26]): 48.9% | IC50 (SUD4 [28]): 91 nM | Activity (SUD4 [29]): Active; Modest Effect Observed | Activity (SU-DHL-6 [30]): Active | inhibition (SU-DHL-4): Active
